Laboratory results from US10358453B2, “Antiviral compounds” (priority 2015, dated 2019).

How the values were obtained:
[1] = biological target: recombinant RSV complex (Human respiratory syncytial virus A, UniProt P28887); assay: RSV polymerase inhibition assay; assay type: biochemical; conditions: 10 nM recombinant RSV complex, 2 h at 30° C.; Table E = <1 μM, Table F = <50 μM; read-out: IC50
Experimental: Standard RSV polymerase assays were conducted in the presence of 10 nM recombinant RSV complex in a reaction buffer containing Tris-HCl pH7.5, 6 mM MgCl2, and other additives and substrates including RNA oligonucleotides and radionucleotides. Standard reactions were incubated in 96-well plate format for 2 h at 30° C., in the presence of increasing concentration of inhibitor. The reaction was stopped with 90 μL of 0.1M EDTA, and the reaction product was transferred to a “reading” 96-well plate. After washing of the plate, radiolabeled RNA products were detected according to standard procedures with a Trilux Topcount scintillation counter. The compound concentration at which the enzyme-catalyzed rate was reduced by 50% (IC50) was calculated by fitting the data to a non-linear regression (sigmoidal).

[2] = test system: RSV subgenomic replicon 395 HeLa and APC126; assay: RSV subgenomic replicon assay (Renilla luciferase); assay type: cell-based; conditions: RSV replicon cells (395 HeLa 7 days or APC126 3 days), Table G = less than 1 μM, Table H = equal to or higher than 1 μM and less than 50 μM
From the text: The RSV subgenomic replicon 395 HeLa and APC126 were licensed from Apath (Brooklyn, N.Y.) and were originally developed by Dr. Mark Meeples of Center for Vaccines & Immunity, the Research Institute at Nationwide Children's Hospital in Columbus, Ohio. To generate subgenomic RSV replicon, three glycoprotein genes, those for SH, G, and F, from a full-length recombinant GFP-expressing (rg) RSV antigenomic cDNA were deleted. In their place, a blasticidin S deaminase (bsd) gene was inserted. Through multiple steps, the RSV replicon was established in HeLa cells (395 Hela) or BHK cells (APC126). Both 395 HeLa and APC126 cells were cultured in Dulbecco's Modified Eagle Medium (DMEM) containing 4500 mg/L D-glucose, L-glutamine, and 110 mg/L sodium pyruvate (Invitrogen, Cat. #11995-040). The medium was further supplemented with 10% (v/v) fetal bovine serum (FBS) (Mediatech, Cat. #35-010-CV), 1% (v/v) penicillin/streptomycin (Mediatech, Cat. #30-002-CI), and 10 μg/mL of Blasticidin (BSD) (Invivogen, Cat. code ant-bl-1). Cells were maintained at 37° C. in a humidified 5% CO2 atmosphere.
Determination of 50% inhibitory concentration (EC50), 90% inhibitory concentration (EC90) and 50% cytotoxic concentration (CC50) in RSV replicon cells were performed by the following procedure. On the first day, 5000 RSV replicon cells per well were plated in a 96-well plate. On the following day, compounds to be tested were solubilized in 100% DMSO to 100X the desired final testing concentration. Each compound was serially diluted (1:3) up to 9 distinct concentrations. Compounds in 100% DMSO were reduced to 10% (v/v) DMSO by diluting 1:10 in cell culture media. A 10 μL sample of the compounds diluted to 10% (v/v) DMSO with cell culture media was used to treat the RSV replicon cells in 96-well format. The final DMSO concentration was 1% (v/v). Cells were incubated with compounds for 7 days (for 395Hela) or 3 days (for APC126) at 37° C. in a 5% CO2 atmosphere. In each assay, positive control that was previously characterized in the RSV replicon assay was included.
The Renilla Luciferase Assay System (Promega, Cat. #E2820) was used to measure anti-RSV replicon activity. Assay plates were set up as stated above. Luminescence was recorded using a Perkin Elmer multilabel counter Victor3V. EC50, the concentration of the drug required for reducing RSV replicon RNA by 50% in relation to the untreated cell control value, was calculated from the plot of percentage reductions of the […] against the drug concentrations using the Microsoft Excel forecast function.

[3] = Cytotoxicity determination (CCK-8, without addition of virus); assay type: cell-based; conditions: human, HEp-2 cells (uninfected), no virus, Table C = greater than 100 μM, Table D = equal to or less than 100 μM and greater than 10 μM
Experimental: CPE reduction assays are performed as described by Sidwell and Huffman et al., Appl. Microbiol. (1971) 22(5):797-801 with slight modifications. HEp-2 cells (ATCC#, CCL-23) are seeded at a density of 1,500 cells/30 μL/well into the 384-well cell plate(s) (Corning#3701) one day prior to the assay. Compounds are added into 384-well cell plates by Labcyte POD 810 Plate Assembler system. Each of the test compounds is provided to duplicate wells of a 384-well cell plate at final concentrations starting from 100 μM or 1 μM using 1/3 stepwise dilutions for 9 points. Quick-thaw Respiratory Syncytial Virus (RSV) long strain (ATCC#VR-26) stock in a 37° C. water bath. Place on ice until ready to use. Viruses are diluted to the concentration of 100 TCID50/30 μL with medium and 30 μl diluted RSV are added into related wells of 384-well cell plates. For each plate, sixteen wells are set aside as uninfected, untreated cell controls (CC), and nine wells per test plate receive virus only as a control for virus replication (VC). The final DMSO concentration of all wells is 1%. Place the plates at 37° C., 5% CO2 for 5 days.
In order to determine the compound cytotoxicity, in parallel, each of the compounds is applied to duplicate wells in a 384-well cell plate at serial final concentrations starting from 100 μM using ½ stepwise dilutions for 7 points without addition of virus. Incubate the cells at 37° C., 5% CO2 for 5 days. Add 6 μL CCK-8 into each well and incubate in a CO2 incubator at 37° C. for 3-4 h. Read the plates to obtain the optical densities which are used to calculate 50% cytotoxicity concentration (CC50).

[4] = human respiratory syncytial virus

Chain of recombinant RSV complex (P28887 whole entry): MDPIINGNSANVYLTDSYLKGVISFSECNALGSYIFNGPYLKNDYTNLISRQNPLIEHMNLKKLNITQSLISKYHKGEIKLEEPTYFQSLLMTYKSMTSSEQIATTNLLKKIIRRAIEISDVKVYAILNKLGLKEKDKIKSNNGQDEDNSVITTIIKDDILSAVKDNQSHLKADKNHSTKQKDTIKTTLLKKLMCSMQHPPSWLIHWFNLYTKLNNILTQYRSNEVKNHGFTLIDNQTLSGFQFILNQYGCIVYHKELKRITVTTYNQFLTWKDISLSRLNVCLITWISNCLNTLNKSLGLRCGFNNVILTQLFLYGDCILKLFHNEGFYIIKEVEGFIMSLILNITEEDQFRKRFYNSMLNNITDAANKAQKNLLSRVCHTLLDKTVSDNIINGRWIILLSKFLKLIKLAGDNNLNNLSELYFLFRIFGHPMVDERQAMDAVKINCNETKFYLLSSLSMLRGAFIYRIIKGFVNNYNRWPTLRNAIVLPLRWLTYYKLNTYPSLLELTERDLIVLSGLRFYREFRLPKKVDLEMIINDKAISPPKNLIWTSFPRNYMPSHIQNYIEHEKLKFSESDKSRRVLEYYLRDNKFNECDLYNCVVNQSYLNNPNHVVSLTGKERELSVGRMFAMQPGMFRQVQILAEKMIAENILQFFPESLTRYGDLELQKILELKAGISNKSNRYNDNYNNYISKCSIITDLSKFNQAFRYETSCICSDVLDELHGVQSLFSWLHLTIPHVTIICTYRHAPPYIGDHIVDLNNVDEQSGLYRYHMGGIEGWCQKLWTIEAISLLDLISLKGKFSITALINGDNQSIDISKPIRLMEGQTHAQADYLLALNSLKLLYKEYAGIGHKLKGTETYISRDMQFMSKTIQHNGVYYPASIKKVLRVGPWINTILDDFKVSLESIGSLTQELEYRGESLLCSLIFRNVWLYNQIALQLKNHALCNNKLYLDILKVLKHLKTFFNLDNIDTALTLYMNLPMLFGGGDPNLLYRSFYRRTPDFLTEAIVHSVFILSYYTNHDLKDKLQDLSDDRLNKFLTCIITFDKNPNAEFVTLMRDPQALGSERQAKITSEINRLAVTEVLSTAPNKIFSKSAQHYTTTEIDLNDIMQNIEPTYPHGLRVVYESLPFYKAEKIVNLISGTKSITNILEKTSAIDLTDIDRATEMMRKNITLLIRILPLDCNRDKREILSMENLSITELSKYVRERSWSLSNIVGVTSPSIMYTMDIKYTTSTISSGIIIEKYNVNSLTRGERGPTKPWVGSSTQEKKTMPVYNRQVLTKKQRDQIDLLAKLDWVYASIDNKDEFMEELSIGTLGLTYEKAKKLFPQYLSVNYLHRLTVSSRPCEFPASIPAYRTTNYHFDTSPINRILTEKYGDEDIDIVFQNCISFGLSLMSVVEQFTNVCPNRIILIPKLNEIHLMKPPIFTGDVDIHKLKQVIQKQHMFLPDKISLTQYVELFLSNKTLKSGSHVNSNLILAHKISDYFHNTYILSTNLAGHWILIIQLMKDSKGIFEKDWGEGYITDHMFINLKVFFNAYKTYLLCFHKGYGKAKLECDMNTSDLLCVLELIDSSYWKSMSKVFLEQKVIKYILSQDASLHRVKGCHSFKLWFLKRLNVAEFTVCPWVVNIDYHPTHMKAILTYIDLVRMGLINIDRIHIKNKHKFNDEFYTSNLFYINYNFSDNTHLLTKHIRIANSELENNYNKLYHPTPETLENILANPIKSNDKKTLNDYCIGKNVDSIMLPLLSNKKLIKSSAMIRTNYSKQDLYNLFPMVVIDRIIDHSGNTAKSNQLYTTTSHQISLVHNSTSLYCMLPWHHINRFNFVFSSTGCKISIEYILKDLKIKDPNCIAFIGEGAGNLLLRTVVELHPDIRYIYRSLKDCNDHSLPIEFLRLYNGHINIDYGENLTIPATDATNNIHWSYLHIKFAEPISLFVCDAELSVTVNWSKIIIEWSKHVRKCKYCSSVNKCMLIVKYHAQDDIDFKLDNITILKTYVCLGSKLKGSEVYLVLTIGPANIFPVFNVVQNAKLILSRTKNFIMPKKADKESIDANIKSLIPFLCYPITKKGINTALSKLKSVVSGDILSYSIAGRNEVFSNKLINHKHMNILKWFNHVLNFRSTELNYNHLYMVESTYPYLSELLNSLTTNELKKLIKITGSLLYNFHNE
Chain of recombinant RSV complex (P03421 whole entry, further chain): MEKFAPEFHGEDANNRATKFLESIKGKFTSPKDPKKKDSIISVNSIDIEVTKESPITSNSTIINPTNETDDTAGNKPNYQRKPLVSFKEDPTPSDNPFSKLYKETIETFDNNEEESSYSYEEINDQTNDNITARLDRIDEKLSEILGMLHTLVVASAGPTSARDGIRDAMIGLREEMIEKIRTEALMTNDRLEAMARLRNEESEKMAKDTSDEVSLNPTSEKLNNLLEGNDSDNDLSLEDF

SMILES | IC50 [1] [nM] | EC50 [2, 4] [nM] | CC50 at 5 days [3] [nM] | EC50 [2] [nM]
COc1cc(C(=O)NCC(O)(c2cn(C(C)(C)CN)cc(-c3ccc(F)cc3)c2=O)C(F)(F)F)ccc1OCCO (centres unmarked) [Compound 78] | < 50000 | – | – | –
CC1(N)COc2c1cc(C(O)(CNC(=O)c1ccc(CO)c(OC3CC3)c1)C(F)(F)F)nc2-c1ccc(F)cc1 (centres unmarked) [Compound 22] | < 1000 | < 1000 | 10000 to 100000 | –
COc1cc(C(=O)NCC(O)(c2cc(C3(C)CCNCC3)cc(-c3ccc(F)cc3)n2)C(F)(F)F)ccc1OCCO (centres unmarked) [Compound 117] | < 50000 | 1000 to 50000 | 10000 to 100000 | –
COc1cc(C(=O)NCC(O)(c2cc3c(c(-c4ccc(F)cc4)n2)OCC3(C)N)C(F)(F)F)ccc1OC(C)(C)CO (centres unmarked) [Compound 125] | < 1000 | < 1000 | 10000 to 100000 | –
COc1cc(C(=O)NC[C@@](O)(c2cc3c(c(-c4ccc(F)cc4)n2)N(C)C[C@@]3(C)N)C(F)(F)F)ccc1OCCO [Compound 79] | < 1000 | < 1000 | 10000 to 100000 | –
CC(C)(N)c1cc(-c2ccc(F)cc2)nc(C(O)(CNC(=O)c2ccc(OCCO)c(OC3CC3)c2)C(F)(F)F)c1 (centres unmarked) [Compound 34] | < 1000 | < 1000 | 10000 to 100000 | –
C[C@@]1(N)COc2c1cc([C@@](O)(CNC(=O)c1ccc(OC3CC3)c(OCCO)c1)C(F)(F)F)nc2-c1ccc(F)cc1 [Compound 60] | < 1000 | < 1000 | 10000 to 100000 | –
CC(C)(N)c1cc(-c2ccc(F)cc2)nc([C@](O)(CNC(=O)c2ccc(OC3CC3)c(OCCO)c2)C(F)(F)F)c1 [Compound 58] | < 1000 | – | – | –
COc1cc(C(=O)NCC(O)(c2cc3c(c(-c4ccc(F)cc4)n2)OCC3(C)N)C(F)(F)F)cc2c1NC(=O)C2 (centres unmarked) [Compound 9] | < 1000 | – | – | –
CC1(N)COc2c1cc(C(O)(CNC(=O)c1ccc(OC3CC3)c(OCCO)c1)C(F)(F)F)nc2-c1ccc(F)cc1 (centres unmarked) [Compound 35] | < 1000 | – | – | –
CC1(N)COc2c1cc(C(O)(CNC(=O)c1ccc(OC3CC3)c(OC3CC3)c1)C(F)(F)F)nc2-c1ccc(F)cc1 (centres unmarked) [Compound 25] | < 1000 | – | 10000 to 100000 | –
COc1cc(C(=O)NCC(O)(c2cc3c(c(-c4ccccc4)n2)OCC3(C)N)C(F)(F)F)ccc1OCCO (centres unmarked) [Compound 27] | < 1000 | – | 10000 to 100000 | –
COc1cc(C(=O)NC[C@](O)(c2cc3c(c(-c4ccc(F)cc4)n2)NC[C@]3(C)N)C(F)(F)F)ccc1OCCO (single isomer, unassigned) [Compound 53] | < 1000 | – | – | –
COc1cc(C(=O)NCC(O)(c2cc(C3(C)CCNC3)cc(-c3ccc(F)cc3)n2)C(F)(F)F)ccc1OCCO (centres unmarked) [Compound 116] | < 1000 | – | 10000 to 100000 | –
COc1ccc(C(=O)NCC(N)(c2cc(C(C)(C)N)cc(-c3ccc(F)cc3)n2)C(F)(F)F)cc1OCCO (centres unmarked) [Compound 42] | < 1000 | – | – | –
CC(C)(N)c1cc(-c2ccc(F)cc2)nc([C@](O)(CNC(=O)c2ccc(OCCO)c(OC3CC3)c2)C(F)(F)F)c1 [Compound 56] | < 1000 | – | – | –
COc1cc(C(=O)NCC(O)(c2nc(-c3ccc(F)cc3)n3ccccc23)C(F)(F)F)ccc1OCCO (centres unmarked) [Compound 137] | < 1000 | – | – | –

SMILES | IC50 [1] [nM] | EC50 [2, 4] [nM] | CC50 at 5 days [3] [nM] | EC50 [2] [nM]
COc1cc(C(=O)NCC(O)(c2cc3c(c(-c4ccc(F)cc4)n2)OCC3(C)N)C(F)(F)F)ccc1C#CCO (centres unmarked) [Compound 28] | < 1000 | < 1000 | – | –
COc1cc(C(=O)NCC(O)(c2cc3c(c(-c4ccc(F)cc4)n2)OC[C@@]3(C)N)C(F)(F)F)cc2c1OC(=O)NC2 (some centres unmarked) [Compound 17] | < 1000 | – | – | –
COc1nc(C(=O)NC[C@@](O)(c2cc3c(c(-c4ccc(F)cc4)n2)NC[C@@]3(C)N)C(F)(F)F)cc2c1NC(=O)C2 [Compound 99] | < 1000 | – | – | –
COc1cc(C(=O)NCC(O)(c2nc(-c3ccc(F)cc3)c3ccccn23)C(F)(F)F)ccc1OCCO (centres unmarked) [Compound 54] | < 50000 | – | – | –
C[C@@]1(N)CNc2c1cc([C@](O)(CNC(=O)c1ccc(OC3CC3)c(OC3CC3)c1)C(F)(F)F)nc2-c1ccc(F)cc1 [Compound 126] | < 1000 | – | – | < 1000
CC[C@]1(N)COc2c1cc([C@](O)(CNC(=O)c1ccc(OC[C@@H](C)O)c(OC)c1)C(F)(F)F)nc2-c1ccc(F)cc1 [Compound 133] | < 1000 | – | – | –
COc1cc(C(=O)NC[C@@](O)(c2cc3c(c(-c4ccc(F)cc4)n2)NCC[C@]3(C)N)C(F)(F)F)ccc1OC[C@@H](C)O [Compound 100] | < 50000 | – | – | –
COc1cc(C(=O)NC[C@@](O)(c2cc3c(c(-c4ccc(F)cc4)n2)OC[C@@]3(C)N)C(F)(F)F)cc2ccn(CCO)c12 [Compound 89] | < 1000 | – | – | –
COc1nc(C(=O)NCC(O)(c2cc3c(c(-c4ccc(F)cc4)n2)OCC3(C)N)C(F)(F)F)cc2oc(=O)[nH]c12 (centres unmarked) [Compound 48] | < 50000 | – | 10000 to 100000 | –
CC1(N)COc2c1cc(C(O)(CNC(=O)c1cnc(OCCO)cc1O)C(F)(F)F)nc2-c1ccc(F)cc1 (centres unmarked) [Compound 46] | – | – | > 100000 | –
COc1cc(C(=O)NCC(O)(c2cc3c(c(-c4ccc(F)cc4)n2)OCC32CCN2)C(F)(F)F)ccc1OCCO (centres unmarked) [Compound 109] | < 1000 | – | 10000 to 100000 | –
CC1(N)COc2c1cc(C(O)(CNC(=O)c1cc3c(c(OC4CC4)c1)OC(=O)NC3)C(F)(F)F)nc2-c1ccc(F)cc1 (centres unmarked) [Compound 32] | < 1000 | – | – | –
COc1cc(C(=O)NC[C@@](O)(c2cc3c(c(-c4ccc(F)cc4)n2)OC[C@@]3(C)N)C(F)(F)F)cc2c1NCCC2 [Compound 96] | < 1000 | < 1000 | – | –
COc1cc(C(=O)NC[C@@](O)(c2cc3c(c(-c4ccc(F)cc4)n2)OC[C@@]3(C)N)C(F)(F)F)ncc1OCCO [Compound 77] | < 1000 | – | – | –
C[C@@]1(N)COc2c1cc([C@](O)(CNC(=O)c1ccc(Cl)s1)C(F)(F)F)nc2-c1ccc(F)cc1 [Compound 110] | – | – | 10000 to 100000 | –
COc1cc(C(=O)NC[C@@](O)(c2cc3c(C)c[nH]c3c(-c3ccc(F)cc3)n2)C(F)(F)F)ccc1OCCO [Compound 111] | < 1000 | – | 10000 to 100000 | –
CC1(N)COc2c1cc(C(O)(CNC(=O)c1ccc3c(c1)OCCN3CCO)C(F)(F)F)nc2-c1ccc(F)cc1 (centres unmarked) [Compound 33] | < 1000 | < 1000 | – | –
